Laboratory results as given in US9187435B2, “Bridged Spiro[2.4]heptane ester derivatives” (Actelion Pharmaceuticals Ltd., priority 2010, dated 2015).
Where a name gives a salt, the structure may show the parent alone.

molecular target: T1, human ALX receptor (Homo sapiens, UniProt P25090); assay: Intracellular calcium measurements (FLIPR) in HEK293-hALXR-Gα16 cells, agonistic activity; format: cell-based; settings: values normalized to WKYMVm 10 nM
T1 construct: expressed in transfected cells; host or cells: HEK293 (HEK293-hALXR-Gα16)
T1 sequence (P25090 1-351): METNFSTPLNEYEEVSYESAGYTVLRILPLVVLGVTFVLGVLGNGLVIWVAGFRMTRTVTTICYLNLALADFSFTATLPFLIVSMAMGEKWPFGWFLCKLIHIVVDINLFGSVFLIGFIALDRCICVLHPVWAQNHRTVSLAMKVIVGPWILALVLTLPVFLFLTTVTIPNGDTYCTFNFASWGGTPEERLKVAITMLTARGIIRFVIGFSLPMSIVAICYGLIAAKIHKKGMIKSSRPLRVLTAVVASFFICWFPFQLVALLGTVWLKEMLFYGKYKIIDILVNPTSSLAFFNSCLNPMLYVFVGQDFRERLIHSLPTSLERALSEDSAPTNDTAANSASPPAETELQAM
Description: The ALX receptor and FPRL2 agonistic activities of the compounds of formula (I) are determined in accordance with the following experimental method.
Intracellular Calcium Measurements:
Cells expressing recombinant human ALX receptor and the G-protein Gα16 (HEK293-hALXR-Gα16) were grown to 80% confluency in Growing Medium (GM). Cells were detached from culture dishes with a cell dissociation buffer (Invitrogen, 13151-014), and collected by centrifugation at 1,000 rpm at rt for 5 min in Assay Buffer (AB) (equal parts of Hank's BSS (Gibco, 14065-049) and DMEM without Phenol Red (Gibco, 11880-028)). After 60 min incubation at 37° C. under 5% CO2 in AB supplemented with 1 μM Fluo-4 (AM) (Invitrogen, F14202), and 20 mM HEPES (Gibco, 15630-056), the cells were washed and resuspended in AB. They were then seeded onto 384-well FLIPR assay plates (Greiner, 781091) at 50,000 cells in 70 μl per well and sedimented by centrifugation at 1,000 rpm for 1 min. Stock solutions of test compounds were made up at a concentration of 10 mM in DMSO, and serially diluted in AB to concentrations required for activation dose response curves. WKYMVm (Phoenix Peptides) was used as a reference agonist. FLIPR384 or FLIPR Tetra instruments (Molecular Devices) were operated according to the manufacturer's standard instructions, adding 4 μl of test compound dissolved at 10 mM in DMSO and diluted prior to the experiment in assay buffer to obtain the desired final concentration. Changes in fluorescence were monitored before and after the addition of test compounds at lex=488 nm and lem=540 nm. Emission peak values above base level after compounds addition were exported after base line subtraction. Values were normalized to high-level control (WKYMVm compound, 10 nM final concentration) after subtraction of the base line value (AB addition).

Row | EC50 [nM] | SMILES
1 | 135 | NC(=O)CCOC(=O)[C@H]1[C@H](C(=O)Nc2ccc(Br)nc2)[C@@H]2CC[C@H]1C21CC1 [Example 68, (1S,2R,3R,4R)-[(3-Amino-3-oxopropyl) 2-((6-bromopyridin-3-yl)carbamoyl)spiro[bicyclo[2.2.1]heptane-7,1′-cyclopropane]-3-carboxylate]]
2 | 406 | Cc1cc(CNC(=O)[C@H]2[C@H](C(=O)OCC3CCCCN3C)[C@H]3CC[C@@H]2C32CC2)no1 (stereo partly drawn) [Example 26, (1S,2R,3R,4R)-[1-Methyl-piperidin-2-ylmethyl 2-(((5-methylisoxazol-3-yl)methyl)carbamoyl)spiro[bicyclo[2.2.1]heptane-7,1′-cyclopropane]-3-carboxylate]]
3 | 162 | O=C(OCCN1CCNCC1)[C@H]1[C@H](C(=O)NCc2ccc(Br)cc2F)[C@@H]2CC[C@H]1C21CC1 [Example 71, (1S,2R,3R,4R)-[2-(piperazin-1-yl)ethyl 2-((4-bromo-2-fluorobenzyl)carbamoyl)spiro[bicyclo[2.2.1]heptane-7,1′-cyclopropane]-3-carboxylate]dihydrochloride]
4 | 808 | CCCOC(=O)[C@H]1[C@H](C(=O)NCc2cc(C)on2)[C@@H]2CC[C@H]1C21CC1 [Example 30, (1S,2R,3R,4R)-[Propyl 2-(((5-methylisoxazol-3-yl)methyl)carbamoyl)spiro[bicyclo[2.2.1]heptane-7,1′-cyclopropane]-3-carboxylate]]
5 | 146 | CN(C)CCCOC(=O)[C@H]1[C@H](C(=O)Nc2ccc(Br)nc2)[C@@H]2CC[C@H]1C21CC1 [Example 21, (1S,2R,3R,4R)-[1-Dimethylaminoprop-3-yl 2-((6-bromopyridin-3-yl)carbamoyl)spiro[bicyclo[2.2.1]heptane-7,1′-cyclopropane]-3-carboxylate]]
6 | 145 | O=C(OCCOCCN1CC[C@H](F)C1)[C@H]1[C@H](C(=O)NCc2ccc(Br)cc2F)[C@@H]2CC[C@H]1C21CC1 [Example 69, (1S,2R,3R,4R)-[(S)-2-(2-(3-Fluoropyrrolidin-1-yl)ethoxy)ethyl 2-((4-bromo-2-fluorobenzyl)carbamoyl)spiro[bicyclo[2.2.1]heptane-7,1′-cyclopropane]-3-carboxylate]]
7 | 14.6 | O=C(OCCCCN1CCCC1)[C@H]1[C@H](C(=O)Nc2ccc(Br)nc2)[C@@H]2CC[C@H]1C21CC1 [Example 54, (1S,2R,3R,4R)-[4-(Pyrrolidin-1-yl)butyl 2-((6-bromopyridin-3-yl)carbamoyl)spiro[bicyclo[2.2.1]heptane-7,1′-cyclopropane]-3-carboxylate]]
8 | 281 | O=C(OCCN1CCCC1=O)[C@H]1[C@H](C(=O)Nc2ccc(Br)nc2)[C@@H]2CC[C@H]1C21CC1 [Example 23, (1S,2R,3R,4R)-[2-(2-Oxopyrrolidin-1-yl)ethyl 2-((6-bromopyridin-3-yl)carbamoyl)spiro[bicyclo[2.2.1]heptane-7,1′-cyclopropane]-3-carboxylate]]
9 | 734 | Cc1cc(CNC(=O)[C@H]2[C@H](C(=O)OCC(C)C)[C@H]3CC[C@@H]2C32CC2)no1 [Example 28, (1S,2R,3R,4R)-[Isobutyl 2-(((5-methylisoxazol-3-yl)methyl)carbamoyl)spiro[bicyclo[2.2.1]heptane-7,1′-cyclopropane]-3-carboxylate]]
10 | 585 | Cc1cc(CNC(=O)[C@H]2[C@H](C(=O)OCCN(C)C)[C@H]3CC[C@@H]2C32CC2)no1 [Example 27, (1S,2R,3R,4R)-[1-Dimethylaminoeth-2-yl 2-(((5-methylisoxazol-3-yl)methyl)carbamoyl)spiro[bicyclo[2.2.1]heptane-7,1′-cyclopropane]-3-carboxylate]]
11 | 36.7 | Cc1cc(CNC(=O)[C@H]2[C@H](C(=O)OCCC3(F)CCNCC3)[C@H]3CC[C@@H]2C32CC2)no1 [Example 58, (1S,2R,3R,4R)-[2-(4-Fluoro-piperidin-4-yl)ethyl 2-(((5-methylisoxazol-3-yl)methyl)carbamoyl)spiro[bicyclo[2.2.1]heptane-7,1′-cyclopropane]-3-carboxylate]]
12 | 270 | O=C(OCCC1CCNCC1(F)F)[C@H]1[C@H](C(=O)Nc2ccc(Br)nc2)[C@@H]2CC[C@H]1C21CC1 (stereo partly drawn) [Example 73, (1S,2R,3R,4R)-[2-(3,3-Difluoro-piperidin-4-yl)ethyl 2-((6-bromopyridin-3-yl)carbamoyl)spiro[bicyclo[2.2.1]heptane-7,1′-cyclopropane]-3-carboxylate]]
13 | 9.7 | Cc1cc(CNC(=O)[C@H]2[C@H](C(=O)OCCC3CCNCC3)[C@H]3CC[C@@H]2C32CC2)no1 [Example 47, (1S,2R,3R,4R)-[2-(Piperidin-4-yl)ethyl 2-(((5-methylisoxazol-3-yl)methyl)carbamoyl)spiro[bicyclo[2.2.1]heptane-7,1′-cyclopropane]-3-carboxylate]]
14 | 11.5 | Cc1cc(CNC(=O)[C@H]2[C@H](C(=O)OCC3CCNCC3)[C@H]3CC[C@@H]2C32CC2)on1 [Example 52, (1S,2R,3R,4R)-[(Piperidin-4-yl)methyl 2-(((3-methylisoxazol-5-yl)methyl)carbamoyl)spiro[bicyclo[2.2.1]heptane-7,1′-cyclopropane]-3-carboxylate]]
15 | 157 | O=C(OC[C@@H]1CCNC[C@H]1F)[C@H]1[C@H](C(=O)Nc2ccc(Br)nc2)[C@@H]2CC[C@H]1C21CC1 (relative stereo) [Example 70, (1S,2R,3R,4R)-[(trans-3-Fluoro-piperidin-4-yl)methyl 2-((6-bromopyridin-3-yl)carbamoyl)spiro[bicyclo[2.2.1]heptane-7,1′-cyclopropane]-3-carboxylate]]
16 | 43.4 | O=C(OC1CCNCC1)[C@H]1[C@H](C(=O)NCc2ccc(Br)cc2F)[C@@H]2CC[C@H]1C21CC1 [Example 60, (1S,2R,3R,4R)-[Piperidin-4-yl 2-((4-bromo-2-fluorobenzyl)carbamoyl)spiro[bicyclo[2.2.1]heptane-7,1′-cyclopropane]-3-carboxylate]]
17 | 11.9 | O=C(OCCCCN1CC[C@H](F)C1)[C@H]1[C@H](C(=O)Nc2ccc(Br)nc2)[C@@H]2CC[C@H]1C21CC1 [Example 53, (1S,2R,3R,4R)-[(S)-4-(3-Fluoropyrrolidin-1-yl)butyl 2-((6-bromopyridin-3-yl)carbamoyl)spiro[bicyclo[2.2.1]heptane-7,1′-cyclopropane]-3-carboxylate]]
18 | 33.4 | O=C(O[C@@H]1CCNC[C@H]1F)[C@H]1[C@H](C(=O)Nc2ccc(Br)nc2)[C@@H]2CC[C@H]1C21CC1 (relative stereo) [Example 57, (1S,2R,3R,4R)-[(trans-3-Fluoro-piperidin-4-yl) 2-((6-bromopyridin-3-yl)carbamoyl)spiro[bicyclo[2.2.1]heptane-7,1′-cyclopropane]-3-carboxylate]]
19 | 7.2 | Cc1cc(CNC(=O)[C@H]2[C@H](C(=O)OCCOCCN3CC[C@H](F)C3)[C@H]3CC[C@@H]2C32CC2)on1 [Example 42, (1S,2R,3R,4R)-[(S)-2-(2-(3-Fluoropyrrolidin-1-yl)ethoxy)ethyl 2-(((3-methylisoxazol-5-yl)methyl)carbamoyl)spiro[bicyclo[2.2.1]heptane-7,1′-cyclopropane]-3-carboxylate]]
20 | 79.4 | Cc1cc(CNC(=O)[C@H]2[C@H](C(=O)OCCC3CCCNC3)[C@H]3CC[C@@H]2C32CC2)no1 (stereo partly drawn) [Example 17, (1S,2R,3R,4R)-[2-(Piperidin-3-yl)ethyl 2-(((5-methylisoxazol-3-yl)methyl)carbamoyl)spiro[bicyclo[2.2.1]heptane-7,1′-cyclopropane]-3-carboxylate]hydrochloride]
21 | 106 | O=C(OC[C@H]1CCNC[C@H]1F)[C@H]1[C@H](C(=O)Nc2ccc(Br)nc2)[C@@H]2CC[C@H]1C21CC1 (relative stereo) [Example 64, (1S,2R,3R,4R)-[(cis-3-Fluoro-piperidin-4-yl)methyl 2-((6-bromopyridin-3-yl)carbamoyl)spiro[bicyclo[2.2.1]heptane-7,1′-cyclopropane]-3-carboxylate]]

Row | SMILES | EC50 [nM]
22 | CN1CCC(OC(=O)[C@H]2[C@H](C(=O)Nc3ccc(Br)nc3)[C@@H]3CC[C@H]2C32CC2)CC1 [Example 6, (1S,2R,3R,4R)-[1-Methylpiperidin-4-yl 2-((6-bromopyridin-3-yl)carbamoyl)spiro[bicyclo[2.2.1]heptane-7,1′-cyclopropane]-3-carboxylate]] | 257
